Experimental data from patent USRE46630E1, “Substituted 4-pyridones and their use as inhibitors of neutrophil elastase activity” (Boehringer Ingelheim International GmbH, priority 2012, dated 2017).

What follows are compounds tested against T1, Human neutrophil elastase (Homo sapiens, UniProt P08246) (assay: Human Neutrophil Elastase Assay). Conditions: Neutrophil Elastase assay; substrate MeOSuc-Ala-Ala-Pro-Val-AMC 250 μM; 15 min preincubation, 60 min incubation at room temperature; pH 7.5.
T1 construct: purchased Calbiochem 324681
T1 sequence (P08246 30-267): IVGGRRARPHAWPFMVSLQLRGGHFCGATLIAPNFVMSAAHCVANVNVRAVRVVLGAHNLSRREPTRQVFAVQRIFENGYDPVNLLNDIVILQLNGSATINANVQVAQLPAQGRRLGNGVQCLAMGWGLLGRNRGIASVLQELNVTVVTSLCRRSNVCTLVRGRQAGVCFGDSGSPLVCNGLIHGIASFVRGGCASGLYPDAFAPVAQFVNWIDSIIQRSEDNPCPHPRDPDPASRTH
Type: biochemical
Procedure: Human Neutrophil Elastase Assay
All other materials were of the highest grade commercially available.
The following buffers were used: Compound buffer: 100 mM Tris, 500 mM NaCl, adjusted to pH 7.5; Assay buffer: 100 mM Tris, 500 mM NaCl, adjusted to pH 7.5, containing 0.01% BSA.
Assay conditions: Test compounds were prediluted in DMSO and subsequently in compound buffer (5% DMSO final). […] After inactivation of the enzyme, fluorescence intensities were measured at 380 nm excitation and 460 nm emission wavelengths.
Each plate contains wells with a high value control (DMSO+enzyme+substrate) and wells with a low value control (DMSO+inactivated enzyme+substrate). […] Means of low values were taken as 0%, means of high values as 100%.

With `Cc1c(-c2ccnc(C(F)(F)F)c2)c(=O)c(C(=O)NCC2CC3CCC2O3)cn1C(C)c1ccc(C#N)cc1` (stereo not drawn) [Example 9.24] as the compound, how does the IC50 read?
Its IC50 is 9.8 nM.

With `COc1cc(-c2c(C)n(Cc3ccc(C#N)cc3)cc(C(=O)NCc3ccc(S(C)(=O)=O)cc3)c2=O)ccn1` [Example 6.6] as the compound, how does the IC50 read?
The IC50 was 38.6 nM.

For `Cc1c(-c2ccnc(C(F)(F)F)c2)c(=O)c(C(=O)NCC2CCO2)cn1C(C)c1ccc(C#N)cc1` (stereo not drawn) [Example 9.27], which IC50 is on record?
Its IC50 is 13.7 nM.

Which IC50 does the source give for `Cc1c(-c2cccc(C(F)F)c2)c(=O)c(C(=O)NCc2cccnc2)cn1C(C)c1ccc(C#N)cc1` (stereo not drawn) [Example 8.18] here?
The IC50 was 2.4 nM.

For `Cc1c(-c2cccc(C(F)(F)F)c2)c(=O)c(C(=O)NC2CCN(C)C2=O)cn1C(C)c1ccc(C#N)cn1` (stereo not drawn) [Example 47.12], which IC50 is on record?
The IC50 was 7.3 nM.

How did the IC50 turn out when `Cc1c(-c2cccc(C(F)(F)F)c2)c(=O)c(C(=O)NC2CCNC2=O)cn1C(C)c1ccc(C#N)cc1` (stereo not drawn) [Example 7.12] was run?
Its IC50 is 1.5 nM.

With `CNC(=O)c1cn(Cc2ccc(C#N)cc2F)c(C)c(-c2cccc(C(F)F)c2)c1=O` [Example 32] as the compound, how does the IC50 read?
The IC50 was 11.8 nM.

With `Cc1c(-c2cccc(C(F)(F)F)c2)c(=O)c(C(=O)NCc2ccc(S(C)(=O)=O)cc2)cn1C1(c2ccc(C#N)cc2)CC1` [Example 45, 1-[1-(4-Cyano-phenyl)-cyclopropyl]-6-methyl-4-oxo-5-(3-trifluoromethyl-phenyl)-1,4-dihydro-pyridine-3-carboxylic acid 4-methanesulfonyl-benzylamide] as the compound, how does the IC50 read?
The IC50 was 4.6 nM.

`CCNC(=O)c1cn(C(C)c2ccc(C#N)cc2)c(C)c(-c2cccc(C(F)(F)F)c2)c1=O` (single isomer, unassigned) [Example 10B] was tested. Which IC50 did it give?
Its IC50 is 290 nM.

How did the IC50 turn out when `Cc1c(-c2ccnc(C(F)(F)F)c2)c(=O)c(C(=O)NC(C)(C)C#N)cn1C(C)c1ccc(C#N)cc1` (stereo not drawn) [Example 9.46] was run?
The IC50 was 94 nM.

Which IC50 does the source give for `Cc1c(-c2ccnc(C(F)(F)F)c2)c(=O)c(C(=O)NCC2CCCO2)cn1C(C)c1ccc(C#N)cc1` (stereo not drawn) [Example 9.26] here?
The IC50 was 12.1 nM.

Which IC50 does the source give for `Cc1c(-c2cccc(C(F)(F)F)c2)c(=O)c(C(=O)NCc2ccc(S(C)(=O)=O)cc2)cn1Cc1ccncc1` [Example 2.11] here?
The IC50 was 38.9 nM.

With `Cc1c(-c2cccc(C(F)F)c2)c(=O)c(C(=O)NCCCS(C)(=O)=O)cn1C(C)c1ccc(C#N)cc1` (stereo not drawn) [Example 8.3] as the compound, how does the IC50 read?
The IC50 was 1.3 nM.

`Cc1c(-c2cccc(C(F)F)c2)c(=O)c(C(=O)NCCO)cn1C(C)c1ccc(C#N)cc1` (stereo not drawn) [Example 8.9] was tested. Which IC50 did it give?
The IC50 was 1.9 nM.

`Cc1c(-c2cccc(C(F)(F)F)c2)c(=O)c(C(=O)NCCS(C)(=O)=O)cn1C(C)c1ccc(C#N)cc1` (stereo not drawn) [Example 7.6] was tested. Which IC50 did it give?
Its IC50 is 1.2 nM.

How did the IC50 turn out when `COc1cc(C#N)ccc1Cn1cc(C(=O)NCc2ccc(S(C)(=O)=O)cc2)c(=O)c(-c2cccc(C(F)(F)F)c2)c1C` [Example 2.6] was run?
Its IC50 is 1.6 nM.

`Cc1c(-c2ccnc(C(F)(F)F)c2)c(=O)c(C(=O)NCCC#N)cn1C(C)c1ccc(C#N)cc1` (stereo not drawn) [Example 9.54] was tested. Which IC50 did it give?
The IC50 was 4.1 nM.

`Cc1c(-c2ccnc(C(F)(F)F)c2)c(=O)c(C(=O)NCC(C)(C)C)cn1C(C)c1ccc(C#N)cc1` (stereo not drawn) [Example 9.52] was tested. Which IC50 did it give?
Its IC50 is 420 nM.

`Cc1c(-c2cccc(C(F)F)c2)c(=O)c(C(=O)NCCCO)cn1C(C)c1ccc(C#N)cc1` (stereo not drawn) [Example 8.4] was tested. Which IC50 did it give?
The IC50 was 1.8 nM.

Which IC50 does the source give for `Cc1c(-c2cccc(C(F)(F)F)c2)c(=O)c(C(=O)NCC(F)F)cn1C(C)c1ccc(C#N)cn1` (stereo not drawn) [Example 47.19] here?
Its IC50 is 10.3 nM.

`Cc1c(-c2cccc(C(F)(F)F)c2)c(=O)c(C(=O)NCc2ccc(S(C)(=O)=O)cc2)cn1Cc1ccc(C#N)cc1F` [Example 2.8] was tested. Which IC50 did it give?
The IC50 was less than 1 nM.

How did the IC50 turn out when `Cc1c(-c2cccc(C(F)(F)F)c2)c(=O)c(C(=O)NCCc2ccncc2)cn1Cc1ccc(C#N)cc1` [Example 1.45] was run?
The IC50 was 7.6 nM.

How did the IC50 turn out when `Cc1nnc(CNC(=O)c2cn(C(C)c3ccc(C#N)cc3)c(C)c(-c3cccc(C(F)(F)F)c3)c2=O)o1` (stereo not drawn) [Example 7.5] was run?
Its IC50 is 1.4 nM.

With `Cc1c(-c2ccnc(C(F)(F)F)c2)c(=O)c(C(=O)NCCCS(C)(=O)=O)cn1C(C)c1ccc(C#N)cc1` (stereo not drawn) [Example 9.6] as the compound, how does the IC50 read?
The IC50 was 3.2 nM.

How did the IC50 turn out when `Cc1c(-c2cccc(C(F)F)c2)c(=O)c(C(=O)NCc2ccc(S(C)(=O)=O)cc2)cn1Cc1ccc(C#N)cc1` [Example 6.10] was run?
Its IC50 is less than 1 nM.

For `Cc1c(-c2cccc(C(F)(F)F)c2)c(=O)c(C(=O)NCCCO)cn1C(C)c1ccc(C#N)cc1` (stereo not drawn) [Example 7.4], which IC50 is on record?
Its IC50 is 1.8 nM.

With `COCCNC(=O)c1cn(C(C)c2ccc(C#N)cc2)c(C)c(-c2cccc(C(F)F)c2)c1=O` (stereo not drawn) [Example 8.26] as the compound, how does the IC50 read?
The IC50 was 1.8 nM.

Which IC50 does the source give for `Cc1c(-c2cccc(C(F)(F)F)c2)c(=O)c(C(=O)NCc2ccc(S(C)(=O)=O)cc2)cn1Cc1ccc(Cl)cc1` [Example 2.7] here?
Its IC50 is 6.9 nM.

`Cc1c(-c2cccc(C(F)(F)F)c2)c(=O)c(C(=O)NCc2ccc(S(C)(=O)=O)cc2)cn1Cc1ccc(C#N)nc1` [Example 2.4] was tested. Which IC50 did it give?
The IC50 was 1.4 nM.

Which IC50 does the source give for `Cc1c(-c2cccc(C(F)(F)F)c2)c(=O)c(C(=O)NC2CCN(C)C2=O)cn1C(C)c1ccc(C#N)cc1` (stereo not drawn) [Example 7.10] here?
Its IC50 is 2 nM.

How did the IC50 turn out when `CNC(=O)c1cn(C(C)c2ccc(C#N)cc2)c(C)c(-c2ccnc(C(F)(F)F)c2)c1=O` (single isomer, unassigned) [Example 9A] was run?
Its IC50 is 3.7 nM.

For `Cc1c(-c2cccc(C(F)(F)F)c2)c(=O)c(C(=O)NCCc2cccnc2)cn1Cc1ccc(C#N)cc1` [Example 1.44], which IC50 is on record?
The IC50 was 7.9 nM.

For `Cc1c(-c2cccc(C(F)(F)F)c2)c(=O)c(C(=O)NCc2ccc(S(C)(=O)=O)cc2)cn1C(C)c1ccc(C#N)cn1` (stereo not drawn) [Example 47.13], which IC50 is on record?
The IC50 was less than 1 nM.

For `Cc1c(-c2ccnc(C(F)(F)F)c2)c(=O)c(C(=O)NC(C)C#N)cn1C(C)c1ccc(C#N)cc1` (stereo not drawn) [Example 9.50], which IC50 is on record?
Its IC50 is 4.6 nM.

How did the IC50 turn out when `Cc1c(-c2cccc(C(F)F)c2)c(=O)c(C(=O)NCc2ccc(S(C)(=O)=O)cc2)cn1C(C)c1ccc(C#N)cc1` (single isomer, unassigned) [Example 11A] was run?
The IC50 was less than 1 nM.

`Cc1c(-c2cccc(C(F)(F)F)c2)c(=O)c(C(=O)NCc2cccc(=O)[nH]2)cn1Cc1ccc(C#N)cc1` [Example 1.40] was tested. Which IC50 did it give?
Its IC50 is 2.1 nM.

`COCCNC(=O)c1cn(C(C)c2ccc(C#N)cn2)c(C)c(-c2cccc(C(F)(F)F)c2)c1=O` (stereo not drawn) [Example 47.1] was tested. Which IC50 did it give?
The IC50 was 12.9 nM.

How did the IC50 turn out when `Cc1c(-c2cccc(C(F)(F)F)c2)c(=O)c(C(=O)NCC2(O)CC2)cn1C(C)c1ccc(C#N)cc1` (stereo not drawn) [Example 7.16] was run?
The IC50 was 17.9 nM.

`CCCNC(=O)c1cn(C(C)c2ccc(C#N)cc2)c(C)c(-c2cccc(C(F)F)c2)c1=O` (stereo not drawn) [Example 8.27] was tested. Which IC50 did it give?
The IC50 was 3 nM.

How did the IC50 turn out when `Cc1c(-c2cccc(C(F)(F)F)c2)c(=O)c(C(=O)NCc2cnn(C)c2)cn1Cc1ccc(C#N)cc1` [Example 1.26] was run?
The IC50 was 13.2 nM.

Which IC50 does the source give for `Cc1c(-c2ccnc(C(F)(F)F)c2)c(=O)c(C(=O)NC2CCOCC2)cn1C(C)c1ccc(C#N)cc1` (stereo not drawn) [Example 9.25] here?
Its IC50 is 11.4 nM.

For `CNC(=O)c1cn(C(C)c2ccc(C#N)cc2)c(C)c(-c2cccc(C(F)F)c2)c1=O` (single isomer, unassigned) [Example 8B], which IC50 is on record?
The IC50 was 522 nM.

For `Cc1c(-c2cccc(C(F)F)c2)c(=O)c(C(=O)NCc2ccc(S(C)(=O)=O)cc2)cn1Cc1ccc(C#N)c(F)c1` [Example 39, 1-(4-Cyano-3-fluoro-benzyl)-5-(3-difluoromethyl-phenyl)-6-methyl-4-oxo-1,4-dihydro-pyridine-3-carboxylic acid 4-methanesulfonyl-benzylamide], which IC50 is on record?
The IC50 was less than 1 nM.

For `Cc1c(-c2cccc(C(F)(F)F)c2)c(=O)c(C(=O)NCC2(O)CC2)cn1C(C)c1ccc(C#N)cn1` (stereo not drawn) [Example 47.7], which IC50 is on record?
Its IC50 is 30.1 nM.

With `COc1ccc(CNC(=O)c2cn(Cc3ccc(C#N)cc3)c(C)c(-c3cccc(C(F)(F)F)c3)c2=O)cn1` [Example 1.56] as the compound, how does the IC50 read?
Its IC50 is 4.6 nM.
